The text below walks through data of patent publication US20240383910A1, “SMALL MOLECULE BTK DEGRADERS AND METHODS OF USE THEREOF” (Baylor College of Medicine, priority 2023, published 2024).

Each structure is given as a SMILES string.

What all share (type): cell-based
One experiment addresses BTK (Homo sapiens, UniProt Q06187). As to the kind of experiment: Western blotting for BTK in Mino cells. Also on record: host or cells: Mino. The conditions noted are these: 24 h, Western blot. The method, then: Mino cells were seeded into the wells of six-well plates at the density of 5×10^5 cells per mL in 2 mL of complete RPMI-1640 culture medium. After overnight adaptation, cells were treated with serially diluted compounds (from 1,000-1.6 nM, 5-fold dilution) for 24 hours. After treatment, whole cell lysates for immunoblotting were prepared by pelleting Mino cells at 4° C. and 200×g for 5 minutes. The resulting cell pellets were washed once with ice-cold PBS and lysed in 1×RIPA lysis buffer (Alfa Aesar, Cat. No. J62524) supplemented with protease and phosphatase inhibitor cocktail (Thermo Fisher, Cat. No. 78430). Lysates were centrifuged at 15,000×g for 10 min at 4° C. and protein concentrations were assessed using BCA assay (Pierce, Cat. No. 23225). Same amounts of protein (30 μg) for each sample were loaded onto sodium dodecyl sulfate-polyacrylamide gel, separated by electrophoresis (Bio-Rad) at 120 V for 1.5 h and transferred to PVDF membrane using a Transblot Turbo system (Bio-Rad). After blocking for 1 h at room temperature in 1% BSA-TBST, the membranes were immunoblotted with the specified primary antibodies at the dilution of 1:1000 in TBST (Cell Signaling Technology: anti-BTK Cat. No. 8547, anti-IKZF1 Cat. No. 14859, anti-IKZF3 Cat. No. 15103, anti-β-actin Cat. No. 4570, Proteintech: anti-GSPT1, Cat. No. 10763-1-AP) overnight at 4° C. and the HRP-conjugated secondary antibodies (Cell Signaling, Cat. No. 7074, 1:1000 in TBST) for 1 h at room temperature. Imaging was performed using the ECL Prime chemiluminescent Western blot detection reagents (Kindle Biosciences, Cat. No. R1100) by visualization of the blots with an Imager (Kindle Biosciences, Cat. No. D1001). All Western blots were subsequently processed and quantified with Imager software ImageJ and protein level was normalized to the B-actin loading controls.
In general terms: Immunoblotting shows a protein as a band on a membrane.

The target of experiment [1] is T1, BTK-nLuc fusion protein (Homo sapiens, UniProt Q06187+Q96SW2).
T1 construct: Addgene (vector) HsCD00514411; pLenti6.2-ccdB-Nanoluc 87078; host or cells: HEK-293T17
T1 sequence (Q06187 whole entry, the tested form may be a part): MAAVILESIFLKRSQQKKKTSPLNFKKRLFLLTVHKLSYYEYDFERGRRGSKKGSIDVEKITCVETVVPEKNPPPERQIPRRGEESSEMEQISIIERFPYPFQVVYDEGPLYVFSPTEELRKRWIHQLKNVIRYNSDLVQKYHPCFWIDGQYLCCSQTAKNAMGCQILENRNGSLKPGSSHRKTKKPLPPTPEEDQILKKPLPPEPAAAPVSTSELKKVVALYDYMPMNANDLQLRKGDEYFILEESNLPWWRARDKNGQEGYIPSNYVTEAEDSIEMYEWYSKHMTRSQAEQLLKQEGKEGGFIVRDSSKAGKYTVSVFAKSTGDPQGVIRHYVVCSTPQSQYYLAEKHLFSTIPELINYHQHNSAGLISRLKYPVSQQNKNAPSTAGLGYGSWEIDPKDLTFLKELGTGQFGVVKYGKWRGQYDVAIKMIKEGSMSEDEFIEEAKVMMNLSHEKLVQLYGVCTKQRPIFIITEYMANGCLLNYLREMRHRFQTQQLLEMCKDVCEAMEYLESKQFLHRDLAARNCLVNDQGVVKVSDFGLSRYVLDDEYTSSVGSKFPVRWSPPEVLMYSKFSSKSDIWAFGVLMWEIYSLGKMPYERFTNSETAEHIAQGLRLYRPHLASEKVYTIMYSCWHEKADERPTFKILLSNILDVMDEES
T1 sequence (Q96SW2 whole entry, the tested form may be a part): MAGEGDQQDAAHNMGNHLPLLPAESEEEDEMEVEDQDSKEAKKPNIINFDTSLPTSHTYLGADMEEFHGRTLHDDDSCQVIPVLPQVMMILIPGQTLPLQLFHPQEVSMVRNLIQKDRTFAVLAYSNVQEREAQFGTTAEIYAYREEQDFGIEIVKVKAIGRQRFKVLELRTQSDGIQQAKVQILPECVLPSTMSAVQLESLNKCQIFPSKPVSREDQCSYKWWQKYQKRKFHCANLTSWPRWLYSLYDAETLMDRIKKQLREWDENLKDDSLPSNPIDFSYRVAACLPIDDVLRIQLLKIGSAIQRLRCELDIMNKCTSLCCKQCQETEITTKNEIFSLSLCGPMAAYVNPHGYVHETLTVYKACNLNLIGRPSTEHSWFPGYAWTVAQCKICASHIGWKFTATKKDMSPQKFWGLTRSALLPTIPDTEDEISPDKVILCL
T1 sequence (Q16531 whole entry partner, the tested form may be a part): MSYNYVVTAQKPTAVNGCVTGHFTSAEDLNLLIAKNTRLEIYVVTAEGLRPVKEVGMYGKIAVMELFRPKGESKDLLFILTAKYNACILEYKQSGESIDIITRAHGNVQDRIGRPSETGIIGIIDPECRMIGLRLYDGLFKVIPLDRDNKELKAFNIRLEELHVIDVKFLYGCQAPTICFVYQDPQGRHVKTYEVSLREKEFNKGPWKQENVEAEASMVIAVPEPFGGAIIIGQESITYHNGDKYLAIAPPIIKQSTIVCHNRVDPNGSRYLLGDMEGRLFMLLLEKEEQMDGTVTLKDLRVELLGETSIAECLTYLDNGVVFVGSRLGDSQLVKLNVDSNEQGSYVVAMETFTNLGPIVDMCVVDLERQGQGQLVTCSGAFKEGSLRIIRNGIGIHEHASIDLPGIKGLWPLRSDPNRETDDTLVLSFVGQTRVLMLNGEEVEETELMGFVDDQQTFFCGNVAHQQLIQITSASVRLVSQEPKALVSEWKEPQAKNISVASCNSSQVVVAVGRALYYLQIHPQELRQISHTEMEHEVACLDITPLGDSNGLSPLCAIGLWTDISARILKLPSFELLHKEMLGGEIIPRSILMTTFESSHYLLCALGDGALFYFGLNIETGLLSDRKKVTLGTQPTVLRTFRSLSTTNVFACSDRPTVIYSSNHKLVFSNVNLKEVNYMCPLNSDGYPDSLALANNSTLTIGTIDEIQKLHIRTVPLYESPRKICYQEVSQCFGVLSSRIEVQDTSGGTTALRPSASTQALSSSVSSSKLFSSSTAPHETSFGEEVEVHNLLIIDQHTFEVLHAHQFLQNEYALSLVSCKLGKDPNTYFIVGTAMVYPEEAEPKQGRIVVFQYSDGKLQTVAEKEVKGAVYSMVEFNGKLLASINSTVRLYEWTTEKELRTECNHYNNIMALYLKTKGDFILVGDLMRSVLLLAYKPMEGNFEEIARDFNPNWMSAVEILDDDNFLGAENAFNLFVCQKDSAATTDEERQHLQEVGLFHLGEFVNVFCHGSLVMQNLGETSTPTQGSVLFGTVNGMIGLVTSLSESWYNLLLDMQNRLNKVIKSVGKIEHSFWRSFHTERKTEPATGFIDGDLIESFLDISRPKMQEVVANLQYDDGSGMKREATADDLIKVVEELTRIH
Description: BTK-nLuc endpoint degradation assay in HEK-293T cells. The conditions noted are these: HEK-293T cells stably expressing BTK-nLuc, 24 h. How it is done:
(§1) DD-03-171 is a known BTK degrader and used as a positive control. Panel f: HEK-293T cells stably expressing a BTK-nLuc fusion protein were treated with indicated compounds (same as in a-e) for 24 h. The BTK degradation was determined by evaluating luminescence signals of NanoLuc.
(§2) The nanoluc activity was determined using the furimazine substrate (Promega, Cat. No. N1110). Briefly, after 4 h incubation of indicated compounds, cells were directly lysed by addition of 100 μL of nanoluciferase detection solution, containing lysis buffer and furimazine (1/50 dilution). For the 24-hour treatment group, the old medium was replaced with 100 μL fresh opti-MEM, followed by the addition of equal volume of lysis buffer plus furimazine (1/50 dilution).

For experiment [2], the target named is T2, BTK-nLuc fusion protein (Homo sapiens, UniProt Q06187).
T2 construct: Addgene (vector) HsCD00514411; pLenti6.2-ccdB-Nanoluc 87078; host or cells: HEK-293T17
T2 sequence (Q06187 whole entry, the tested form may be a part): as the sequence (Q06187 whole entry, the tested form may be a part) above
T2 sequence (Q96SW2 whole entry, further chain, the tested form may be a part): as the sequence (Q96SW2 whole entry, the tested form may be a part) above
T2 sequence (Q16531 whole entry partner, the tested form may be a part): as the sequence (Q16531 whole entry partner, the tested form may be a part) above
Described as above. The conditions noted are these: HEK-293T cells stably expressing BTK-nLuc, 24 h. How it is done:
as §1, §2

Chain of BTK (Q06187 whole entry): as the sequence (Q06187 whole entry, the tested form may be a part) above

Consider `Cc1c(NC(=O)c2ccc(C(C)(C)C)cc2)cccc1-c1cn(C)c(=O)c(Nc2ccc(C(=O)N3CCN(CCCCCCNC(=O)CNc4cccc5c4C(=O)N(C4CCC(=O)NC4=O)C5=O)CC3)cc2)n1` (centres unmarked) [DD-03-171, reference compound], for which the “BTK WB Dmax” value on BTK came to 99%. In addition, the DC50 amounted to 0.9 nM on BTK (read-out: BTK WB DC50) and 25.9 nM on BTK-nLuc fusion protein [1]. Moreover, at BTK (up to 1000 nM), the “BTK degradation (result in words)” value is “potently induces BTK degradation”. On BTK-nLuc fusion protein [2], the “BTK-nLuc Dmax” value was found to be 96%.
